In test [1] the test system is MPO-ANCA. The test can be described thus: Peptide ELISA with total IgG (Chapel Hill and Groningen). It is filed as binding, human. As to conditions: for MPO-ANCA specific for the epitope detected by ELISA, patients positive/tested: isolated Ig. Here is the method:
A total of 195 IgG samples were tested by native MPO or peptide ELISA. Samples included those from healthy controls (n=59), active disease (n=80) and remission patients (n=56). Total IgG was added to wells (2 μg/well) precoated with 1-2 μg peptide (UNC-CH peptide synthesis core). Goat anti-human with alkaline phosphatase conjugate secondary antibody specific to IgG (H+L) (Millipore, Billerica, Mass.) (1:10,000) was added and detected using 1-Step PNPP substrate (Thermo Scientific) and read at λ=405 nm after 30 min. Identical peptides were used in ELISAs at both locations; all other substrates used to test NL cohort samples by ELISAs were prepared in Groningen. Total IgG (1:500˜2 mg/well) was added to precoated wells blocked with 1% BSA. Secondary antibody, goat anti-human conjugated with alkaline phosphatase (A5403; Sigma-Aldrich) (1:5000), was added and detected using p-nitrophenyl-phosphate disodium substrate.
For orientation: ELISA stands for enzyme-linked immunosorbent assay.

Test [2] has as its system MPO-ANCA. The test can be described thus: Epitope excision MALDI-TOF/TOF MS of patient and healthy Ig with native MPO. As to conditions: human Ig. It is filed as binding. More on the design: key: HC: Healthy control; Active disease; Remission. The source says: Total immunoglobulin (IgG) was purified from sera using protein A/G PLUS-Agarose Reagent according to commercial protocol (Santa Cruz Biotechnology). Purified IgG was immobilized on CNBr-activated Sepharose 4B (GE Healthcare) in compact reaction columns (CRC, USB Corporation) and exposed to native MPO protein (MPO, Elastin Products Co, Inc) followed by digestion with sequencing grade TPCK-treated trypsin (Worthington). MPO-peptides remaining bound to IgG after digestion were eluted with 0.1% trifluoro acetic acid and analyzed on a 4800 Plus Matrix-Assisted Laser Desorption Ionization Time of Flight Mass Spectrometry (MALDI TOF/TOF MS/MS) in conjunction with ProteinPilot software (AB SCIEX).
To identify epitopes of low titer autoantibodies, ^18O labeling (Mirza et al., J. Proteome Res. 7:3042 (2008)) was used to differentiate between the signal and the noise in the MS and MSMS spectra using the 4 Da shifts between the corresponding spectra of labeled and non-labeled peptides. Mass spectrometry analysis for epitopes recognized by MPO autoantibodies from healthy individuals, and for detection of low ANCA titers in remission samples required the use of isotope H2^18O to increase sensitivity (Cambridge Isotope Laboratories). Samples from healthy individuals (n=10) and MPO-ANCA patients in clinical remission (n=35) were processed in the presence of H2^18O. Incorporation of H2^18O on the carboxyl terminus of each proteolytic fragment of MPO during tryptic digestion, trypsin buffer was made with the isotope H2^18O as a diluent.
MPO-ANCA positive patients (n=45) from the University of North Carolina cohort (UNC) were analyzed in the initial studies. Demographics of the cohort (Table 2) indicate a predominantly Caucasian group. Approximately 40% are diagnosed with microscopic polyangiitis (MPA), 40% with renal-limited disease and 20% are diagnosed with granulomatosis with polyangiitis (GPA). To compare epitope specificities related to disease activity, longitudinal samples were analyzed to include active disease (n=52) and remission (n=35) from the UNC cohort (Tables 3 and 4). Ten healthy subjects were included in the analyses. Purified immunoglobulin (Ig) from sera samples was subjected to analysis by epitope excision MALDI-TOF/TOF mass spectrometry (depicted in FIG. 3A) to identify epitope profiles of autoantibodies reactive with MPO. In order to epitope map low titer anti-MPO antibodies from healthy subjects and from patients in disease remission, an approach was designed using the ^16O-to-^18O exchange technique, an adaptation of a proteomics-based quantification method (Mirza et al., J. Proteome Res. 7:3042 (2008)). Incorporation of H2^18O on the carboxyl termini of proteolytic fragments produces a 4 Da mass shift in the MS spectra, decipherable from background noise. MPO epitopes unique to Ig from patients with active disease were designated ‘exclusive to active disease’; epitopes identified in remission samples were designated ‘persistent during remission’; and those present in samples from healthy subjects were designated asymptomatic or ‘natural’.

Test [3] relates to IgG from ANCA-negative AAV patients. The test can be described thus: Epitope excision MS of ANCA-negative IgG with whole leukocyte lysate. As to conditions: total Ig from ANCA-negative AAV patients. Format: binding, human. Here is the method:
(§1) Mass spectrometry analysis of ANCA-negative IgG and mouse IgG samples were conducted as above. With the exception of protein substrate, immobilized ANCA-negative IgG were exposed to whole leukocyte lysate preparation from a healthy donor and mouse IgG to recombinant mouse MPO (R&D Systems).
A variation of epitope excision MS for MPO-ANCA was adapted into a ‘discovery’ tool for identifying unknown autoantigens in ANCA-negative AAV, which presents clinically as vasculitis although with a negative serology for MPO-ANCA and PR3-ANCA. ANCA-negative AAV patients were identified by retrospective review of the medical records, with criteria of histological evidence of vasculitis and negative serological test results from the UNC Hospital clinical laboratory. As an additional measure, sera samples selected for analysis were retested for ANCA reactivity by the laboratory of Dr. John Niles, Massachusetts General Hospital, Boston, USA and were confirmed to be ANCA-negative. Protein lysate of total peripheral blood leukocytes were probed for antigen/s that were reactive with purified total Ig from ANCA-negative AAV patients' sera (FIG. 5A). […] MPO-ANCA specific for this epitope were detected by ELISA using isolated Ig from 8/10 UNC AAV patients and from 6/11 NL AAV patients (Table 2).

The subject of the next test is DR2 Tg mice. The test can be described thus: Actively induced anti-MPO associated glomerulonephritis (peptide immunization). Format: in vivo, mouse. The note with it: for glomerular disease: day 28. On the procedure: DR2 Tg mice (Ooi et al., Proc. Natl. Acad. Sci. USA 109:E2615 (2012); Rich et al., Eur. J. Immunol. 34:1251 (2004)) were immunized s.c. with 3×100 μg of peptide antigen (OVA323-339, n=4 or MPO442-460, n=10) first in FCA then FIA on days 0, 7 and 14. Mice were culled on day 28.
For indirect immunofluorescence, ethanol fixed thioglycolate induced peritoneal neutrophils were cytospun onto slides, purified serum IgG (1 mg/ml) was applied for 20 minutes then anti-mouse IgG Ab was detected using FITC conjugated anti-mouse IgG Ab (Silenus) (Ooi et al., Proc. Natl. Acad. Sci. USA 109:E2615 (2012); Lock, J. Clin. Pathol. 47:4 (1994)). Albuminuria was assessed by ELISA (Bethyl Laboratories) and haematuria assessed by urine test strips (Combur) from a 24 hour urine sample. Blood urea nitrogen (BUN) was measured using standard laboratory methods on serum collected at the end of experiment. Glomerular abnormalities assessed, on […], PAS stained, formalin fixed, paraffin embedded sections (≧50 glomeruli/mouse), were thickening of the capillary walls and mesangial hypercellularity (Ooi et al., J. Am. Soc. Nephrol. 20:980 (2009)). Total glomerular cell nuclei were enumerated (≧20 glomeruli/mouse). Glomerular neutrophils were detected by immunoperoxidase staining of 6 μm thick, periodate lysine paraformaldehyde fixed, frozen kidney sections using anti-Gr-1 antibodies (RB6-8C5).

For test [4], the system named is anti-MPO antibodies of immunized DR2 Tg mice. The test can be described thus: Epitope excision MS of IgG from immunized DR2 Tg mice with recombinant mouse MPO. It is filed as binding. As to conditions: DR2 Tg mice immunized with MPO aa442-460. Here is the method: as §1
As HLA-MHC II help shape the B and T cell repertoires, and consequently the response to foreign and self-antigens, we wanted to define the epitope specificity of the anti-MPO autoantibodies that could be induced experimentally using DR2 Tg mice. In this way, we could assess development of the anti-MPO antibody response after immunization of a single epitope in the context of a human MHC II. IgG from sera of immunized mice was profiled for anti-MPO epitope specificity using epitope excision MS. DR2 Tg mice developed antibodies targeting the human B cell epitope aa447-459 which is within a conserved region of both murine and human MPO. Unpredictably, immunized DR2 Tg mice initiated a polyclonal response producing autoantibodies against the entire MPO molecule. The epitope profile was astonishingly similar to that of the MPO-ANCA human profile (Table 6), indicative of the critical nature of this epitope.

Test [5] concerns anti-MPO^447-459 autoantibody. The test can be described thus: Epitope masking ELISA with ceruloplasmin and its fragments. Format: binding, human. The source says: Serum proteins that bound immobilized MPO peptide aa447-459 were eluted and sequenced for identification. […] Sequenced on a 4800 MALDI TOF-TOF, the protein was identified as ceruloplasmin (CP), and confirmed by western blot analysis probed with a rabbit anti-human anti-CP polyclonal antibody (Abeam). Native CP was purchased (Enzo Life Science) and proteolytically digested in vitro by plasmin (Haemtech).
(§2) To isolate the putative serum factor, immobilized MPO aa447-459 peptide was used as bait to fish-out host proteins with binding capacity. […] However, the CP bound to aa447-459 was primarily a 50 kD protein on sodium dodecyl sulfate polyacrylamide gel electrophoresis (SDS-PAGE), while full length CP is 151 kD (FIG. 6D). An anti-ceruloplasmin western blot confirmed the fragment to be a portion of CP (FIG. 6E). To test the role of proteolytic cleavage in generating the blocking factor, a plasmin-generated fragment of CP (Kingston et al., Proc. Natl. Acad. Sci. USA 74:5377 (1977)) was tested for epitope masking capability (FIG. 6F).

The subject of test [6] is MPO-ANCA IgG (polyclonal). The test can be described thus: Effect of CP on binding of polyclonal MPO-ANCA Ig to native MPO (ELISA). As to conditions: MPO-ANCA IgG from four patients. More on the design: species or system human.
From the text: as §2

The mark [7] stands for this setting: compared with OVA aa323-339 immunized mice.

The values below come from patent publication US20150017665A1, “Peptides and Methods for Detecting MPO-ANCA” (The University of North Carolina at Chapel Hill, priority 2012, published 2015).

On to “RKIVGAMVQIITY (listed as Homo sapiens) [aa447-459]”, for which, in the test with MPO-ANCA [1] (ANCA-negative patients, UNC (n=4) and NL (n=5), longitudinal), the “level of ELISA reactivity versus disease activity” value is on record as “corresponded well with disease activity, declining to low levels as patients entered disease remission”. The “share of MPO-ANCA positive AAV patients with active disease in whom the epitope was identified” value in the test on MPO-ANCA [1] (MPO-ANCA positive AAV, active disease) was ~50%. Besides, the “reactivity by ELISA, share of patient samples” value with MPO-ANCA [1] (NL population, active disease) stood at 52.2%; with MPO-ANCA [1] (UNC MPO-ANCA patient samples, active disease), 42.9%. Besides, in the test with MPO-ANCA [1] (UNC and NL cohorts, remission samples), the “ELISA reactivity in clinical remission” value is “Reactivity declined in clinical remission”. The “MPO-ANCA specific for the epitope detected by ELISA, patients positive/tested” value in the test with MPO-ANCA [1] (ANCA-negative NL AAV patients) is listed as 6/11; with MPO-ANCA [1] (ANCA-negative UNC AAV patients), 8/10. Besides, the “Found in samples: Healthy control, Active disease, or Remission, (HC, A, R)” value in the test with MPO-ANCA [2] (Table 1) and in the test with MPO-ANCA [2] (Table 6) was “A” throughout. In addition, in test [3], the “peptide eluted from ANCA-negative Ig (MS)” value is “A sole peptide was eluted and identified”. The glomerular disease result in the test with DR2 Tg mice was “develop glomerulonephritis”. In addition, the “Epitopes found in immunized mice” value in test [4] is given as “RKIVGAMVQIITY”.

Consider thrombin [reference compound], for which the “generation of a functional (blocking) ceruloplasmin fragment by serum proteases” value in test [5] is “did not”.

Turning to urokinase [reference compound], the “generation of a functional (blocking) ceruloplasmin fragment by serum proteases” value in test [5] was “produced a functional fragment”.

For “LYQEARKIVGAMVQIITYR (LYQEARKIVGAMVQITTYR; listed as Homo sapiens) [aa442-460]”, in the test on DR2 Tg mice (after 28 days), the “induction of MPO-reactive antibodies” value is given as “MPO-reactive antibodies after 28 days”. For the same molecule, in the test with DR2 Tg mice (setting [7]), the BUN result is recorded as “increased BUN values”, the albuminuria result is on record as “developed albuminuria” and the hematuria entry was “hematuria”. In addition, the glomerular disease entry with DR2 Tg mice is “mild glomerular proliferation”.

B1: digested CP: ceruloplasmin digested with plasmin in vitro to produce a 50 kD fragment (protein)
chain: SVPPSASHVAPTETFTYEWTVPKEVGPTNADPVCLAKMYYSAVEPTKDIFTGLIGPMKICKKGSLHANGRQKDVDKEFYLFPTVFDENESLLLEDNIRMFTTAPDQVDKEDEDFQESNKMHSMNGFMYGNQPGLTMCKGDSVVWYLFSAGNEADVHGIYFSGNTYLWRGERRDTANLFPQTSLTLHMWPDTEGTFNVECLTTDHYTGGMKQKYTVNQCRRQSEDSTFYLGERTYYIAAVEVEWDYSPQREWEKELHHLQEQNVSNAFLDKGEFYIGSKYKKVVYRQYTDSTFRVPVERKAEEEHLGILGPQLHADVGDKVKIIFKNMATRPYSIHAHGVQTESSTVTPTLPGETLTYVWKIPERSGAGTEDSACIPWAYYSTVDQVKDLYSGLIGPLIVCRRPYL
On to B1, for which the “effect on binding of polyclonal MPO-ANCA Ig to native MPO” value in test [6] is on record as “did not affect the overall binding”. Further, the “decrease of anti-MPO^447-459 autoantibody reactivity” value in test [5] (ELISA, n=8) is 30-50%.
